Test system: rad51c, rad51d, xrcc2 and xrcc3 mutant DT40 cells
Experiment: colony survival assay on methyl cellulose containing cisplatin
Assay type: cell-based, avian
Conditions: continuous cisplatin in methyl cellulose plate; each mutant vs normal cells
Procedure: Further, the cells were plated on a plate of methyl cellulose containing cisplatin (manufactured by NIPPON KAYAKU CO., LTD.), and cultured in an atmosphere of 5% CO2 and 20% O2, at humidity of 100%, and 39° C. Thereafter, the colony survival assay was carried out, thereby evaluating sensitivity of the cells to cisplatin.
However, as shown in the panel (B) of FIG. 3, each mutant was about 8-fold more sensitive than normal cells to killing by cisplatin (cis-diamminedichloroplatinum-II), a DNA cross-linking agent that has been widely used in chemotherapy. The complementation of these mutants with human cDNAs corresponding to mutant genes in these mutants restored their cisplatin sensitivity to nearly normal levels.

## N.N.[Cl][Pt][Cl] [cisplatin, cis-diamminedichloroplatinum-II]
  sensitivity of each mutant to killing relative to normal cells: about 8 fold
